Consider 1 compound from the NIST ThermoML archive (doi:10.1016/j.fluid.2015.09.019).

Series [1] can be described thus: Molar enthalpy of transition or fusion. As to conditions: Crystal; DSC.
The conditions of series [2]: Crystal; DTA.

± gives the expanded uncertainty stated by the source.

With `CC1=CC(=O)c2ccccc2C1=O` [2-methyl-1,4-naphthalenedione], in series [1], the “Molar enthalpy of transition or fusion” value was determined as 4.86 ± 0.22 kcal/mol. Further, in series [2], the Normal melting temperature was 107.00 ± 1.1 °C.
